From BindingDB's records for doi:10.1016/s0960-894x(03)00491-8 (Central Drug Research Institute, 2003) come the findings set out here.

In this experiment the target is Beta-3 adrenergic receptor (Homo sapiens, UniProt P13945). Nature of the experiment: In vitro effective concentration against beta-3 adrenergic receptor.

Usually pEC50 stands for −log10 of the EC50, conventionally taken in molar units. The low end stands for a large EC50, the high end for a small EC50.

pEC50: −log10 of the molar value.

Chain of Beta-3 adrenergic receptor (P13945 whole entry): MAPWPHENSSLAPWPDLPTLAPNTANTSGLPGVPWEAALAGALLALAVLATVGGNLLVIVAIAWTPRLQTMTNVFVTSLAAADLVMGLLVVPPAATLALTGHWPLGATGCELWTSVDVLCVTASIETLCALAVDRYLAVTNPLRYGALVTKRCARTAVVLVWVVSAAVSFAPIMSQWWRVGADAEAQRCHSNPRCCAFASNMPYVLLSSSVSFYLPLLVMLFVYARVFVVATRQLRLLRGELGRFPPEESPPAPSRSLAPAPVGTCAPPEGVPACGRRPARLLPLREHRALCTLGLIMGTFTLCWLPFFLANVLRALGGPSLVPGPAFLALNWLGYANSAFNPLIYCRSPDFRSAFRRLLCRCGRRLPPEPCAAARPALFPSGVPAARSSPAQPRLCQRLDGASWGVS

For the molecule `CCCCCCCCn1cc(O)n(-c2ccc(S(=O)(=O)Nc3ccc(CCNC[C@H](O)c4cccnc4)cc3)cc2)c1=O` [N-{4-[2-((R)-2-Hydroxy-2-pyridin-3-yl-ethylamino)-ethyl]-phenyl}-4-(3-octyl-2,5-dioxo-imidazolidin-1-yl)-benzenesulfonamide], the negative-log EC50 (pEC50) was 7.20.

`CCCCCCn1cc(O)n(-c2ccc(S(=O)(=O)Nc3ccc(CCNC[C@H](O)c4cccnc4)cc3)cc2)c1=O` [4-(3-Hexyl-2,5-dioxo-imidazolidin-1-yl)-N-{4-[2-(2-hydroxy-2-pyridin-3-yl-ethylamino)-ethyl]-phenyl}-benzenesulfonamide] had a pEC50 of 8.44.

Molecule `CCCCCCn1c(O)cn(-c2ccc(S(=O)(=O)Nc3ccc(CCNC[C@H](O)c4cccnc4)cc3)cc2)c1=O` [4-(3-Hexyl-2,4-dioxo-imidazolidin-1-yl)-N-{4-[2-(2-hydroxy-2-pyridin-3-yl-ethylamino)-ethyl]-phenyl}-benzenesulfonamide] gave a pEC50 of 7.11. This pEC50 lies 1.33 log units lower than the previous one.
